Assay results taken from patent publication US20050238581A1, “Dynamic hepatic recycling glucose tolerance test” (priority 2002, published 2005).

How the values were obtained:
[1] = intraperitoneal hepatic recycling glucose tolerance test (HRGTT) with [1, 2-^13C2]-glucose load; assay type: in vivo, C57BL6 mice; conditions: for decrease in total amount of M2 glucose: compared to amount appearing in plasma between 0-60 minutes
Description: Stable isotopes of the M2 isotopomer glucose was administered at 1 mg glucose/gm body weight by intraperitoneal injection. Animals were euthanized by an overdose of isoflurane anesthesia, and tissue from liver and skeletal muscle were rapidly dissected free, snap-frozen in liquid nitrogen, and stored at −80° C. until processed for isolation of RNA or glycogen. Cytosolic protein was extracted from the liver tissue after homogenization with 10 strikes in lysis buffer containing 0.25 M sucrose, I OmM Tris-HCL(pH7.4), 3 mM MgCL2, 0.1 mM PMSF, 20 mM NaF, 1 mM Na3VO4, 1 MM Na4P207, 1 μg/ml of leupeptin/aprotinin/pepstatin. The resulting cell lysate was filtered with 4 layers of cheesecloth. Nuclei were pelleted by centrifugation at 1000 g for 10 min. Mitochondria were precipitated by centrifugation at 15,000 g for 20 min from the supernatant. The cytosolic fraction was isolated as the supernatant obtained from last ultra-centrifugation at 100,000 g at 4° C. for 1 hr. Protein concentration from cytosol were measured by using an absorbance at 595 run (BCA kit from Pierce). 60 1 μg of protein extracts from cytosol were separated by 10% SDS-PAGE. The membrane blots were incubated with anti-GK at 1:2500 (v/v), anti-G6PDH at 1:2000 (v/v), anti-PEPCK at 1:500 (v/v), and anti-p-actin at 1:2000 (v/v), for either 1 hr in western washing buffer at RT or overnight at 4 C after blocking. The blots were hybridized with secondary antibodies coupled to horseradish peroxidase for 40 to 60 min at RT. Immunodetection was accomplished using enhanced chemiluminescence. Density of each band was determined by scanning the exposed film. The time course of glucose and lactate isotopomers in plasma, and glucose isotopomers in liver glycogen was determined using gas chromatography/mass spectrometry. The M1 glucose isotopomer, in which ^13C glucose can occupy the carbon 1 position, was produced via the action of the oxidative limb of the pentose phosphate pathway (PPP) on the administered M2 glucose isotopomer, and its re-entry into the gluconeogenic pathway via the non-oxidative limb of the PPP. The absorption of administered glucose was monitored by the time course of M2 isotopomer, and hepatic glucose recycling by the time course of M1 isotopomer of glucose.

[2] = [1, 2-^13C2]-glucose HR-GTT in C57BL/6 and PPARα KO mice; assay type: in vivo, C57BL/6 mice and PPARα KO mice; conditions: for glucose recycling rate constant (kHR), slope of M1/M2 ratio against time: regression analysis
Description: Wild-type (C57BL/6) mice and PPARα KO mice were obtained. In this example, glucose was labeled with either stable isotopes of [1, 2-^13C2]-glucose, or [2-^2H]- and [6, 6-^2H2]-glucose and all isotopes were 99% enriched. The [1, 2-^13C2]-glucose, or a 1:1 mixture of [2-^2H]- and [6, 6-^2H2]-glucose, was then administered at 1 mg glucose/gm body weight by intraperitoneal injection. Blood was sampled at 0, 0.5, 1, 2, and 3 hours for [1, 2-^13C2]-glucose isotopomer analysis, and 0.5, 1 and 2 hours for deuterated glucose isotopomer analysis. Plasma glucose and lactate concentrations were determined by the use of a COBAS MIRA analyzer. All isotopomeric determinations were performed on a Hewlett Packard Mass Selective Detector (model 5973A) connected to an HP Gas Chromatograph (model 6890) using chemical ionization (CI) with 20% methane. The re-cycling of hepatic glucose, leading to the appearance of M1 glucose in blood, occurs when the glucose traverses the glucose<->G-6-P, pentose phosphate pathway, and possibly the TCA cycle. […] The slope of the increase in this ratio gives the in vivo glucose dependent futile re-cycling rate constant of glucose through G-6-P.

fall in plasma M2 levels, faster in PPARα KO than in C57BL/6 (overall glucose clearance) ([2]; between 0.5 hours and 3.0 hours, p<0.001): 32%
SMILES: OC[C@H]1OC(O)[C@H](O)[C@@H](O)[C@@H]1O (stereo partly shown) [[1,2-^13C2]-glucose]
decrease in total amount of M2 glucose ([1]; 60-120 minutes): 30% | decrease in total amount of M2 glucose ([1]; 120-180 minutes): 65% | plasma M2 enrichment after steady decline ([1]; after the first 60 minutes, ip 1 mg/gm): 20.1±1.3% | enrichment of [1, 2-^13C2]-glucose (M2) in the plasma glucose pool ([1]; enrichment rapidly achieved after ip injection of 1 mg/gm body weight): 55±1.0% | contribution of direct pathway from glucose uptake to glycogen glucose deposited ([1]; glucose load 1 mg glucose/g body weight): less than 5% | M2 isotopomer enrichment in liver glycogen glucose, start of decrease ([1]; liver glycogen, earlier time (2 hours)): 1.9% | M2 isotopomer enrichment in liver glycogen glucose, end of decrease ([1]; liver glycogen, later time (3 hours)): 0.8% | glucose recycling rate constant (kHR), slope of M1/M2 ratio against time ([2]; C57BL/6 mice): 0.1086 ± 0.0049 per hour | glucose recycling rate constant (kHR), slope of M1/M2 ratio against time ([2]; PPARα KO mice, p<0.025 vs C57BL/6): 0.0790 ± 0.0064 per hour
